{"source": "paper PMC12677843", "about": "“Multidisciplinary Preclinical Investigations on Ferrocenyl, Ruthenocenyl, and Benzyl Derivatives of Niridazole as New Drug Candidates against Schistosomiasis” (Chemmedchem, 2025)", "test_system": "SH-SY5Y cells", "assay": "SYTOX cell viability assay, SH-SY5Y", "format": "cell-based, human", "conditions": "20 µM, 24 h, serum-free charcoal-treated medium, vs DMSO control (0.2%), mean", "experimental": "The SYTOX cell viability assay was performed in SHSY5Y cells. Cells were treated with either compound (20 µM) or DMSO control (0.2%) for 24 h at 37 °C and 5% CO2 in serum‐free charcoal‐treated medium. Results were normalized to the DMSO control. Mean ± SD was calculated from three independent experiments, each performed in quadruplicate. […]\nserum-free media containing either treatment at a concentration of 20 µM or DMSO (ITW Reagents Cat A3672) control (0.2 %).\nFollowing 24 h of incubation, 12.5 μL of an XTT/phenazine methosulfate (PMS) (XTT Sigma Aldrich cat X4626, PMS Serva CAT: 3203) 0.02solution (1 mg/mL XTT and 7.5 μg/mL PMS) was added to each well. Absorbance was measured using a microplate reader (Biotek Synergy HT) at 450 nm (signal) and 650 nm (background), 2 h after the addition of the XTT/PMS solution. Individual backgrounds were subtracted and all results were normalized to DMSO control. Mean ± SD was determined from three independent experiments, each performed in quintuplicate.\nSYTOX cell viability assay\nThe cytotoxic potential was additionally evaluated using the staining-based SYTOX viability assay. […] Data was acquired on the BioTeck Cytation5 microscope and evaluated by the manufacturer’s software (Gen5 Image Prime Version 3.12). […] Mean ± SD was determined from three independent experiments, each performed in quadruplicate. […]", "data": [{"molecule": "O=C1NCCN1c1ncc([N+](=O)[O-])s1", "note": "[Niridazole, niridazole]", "values": [{"measurement": "reduction of SH-SY5Y cell viability (SYTOX)", "result": "no signs of toxicity"}]}]}
